From the Kinase Knowledgebase extract (Sharma et al. 2016)

Molecular target: PIK3CG (human) (UniProt P48736)
Assay: Inhibition of PIK3CG Kinase Activity

PIK3CG (human), sequence (P48736 whole entry, looked up): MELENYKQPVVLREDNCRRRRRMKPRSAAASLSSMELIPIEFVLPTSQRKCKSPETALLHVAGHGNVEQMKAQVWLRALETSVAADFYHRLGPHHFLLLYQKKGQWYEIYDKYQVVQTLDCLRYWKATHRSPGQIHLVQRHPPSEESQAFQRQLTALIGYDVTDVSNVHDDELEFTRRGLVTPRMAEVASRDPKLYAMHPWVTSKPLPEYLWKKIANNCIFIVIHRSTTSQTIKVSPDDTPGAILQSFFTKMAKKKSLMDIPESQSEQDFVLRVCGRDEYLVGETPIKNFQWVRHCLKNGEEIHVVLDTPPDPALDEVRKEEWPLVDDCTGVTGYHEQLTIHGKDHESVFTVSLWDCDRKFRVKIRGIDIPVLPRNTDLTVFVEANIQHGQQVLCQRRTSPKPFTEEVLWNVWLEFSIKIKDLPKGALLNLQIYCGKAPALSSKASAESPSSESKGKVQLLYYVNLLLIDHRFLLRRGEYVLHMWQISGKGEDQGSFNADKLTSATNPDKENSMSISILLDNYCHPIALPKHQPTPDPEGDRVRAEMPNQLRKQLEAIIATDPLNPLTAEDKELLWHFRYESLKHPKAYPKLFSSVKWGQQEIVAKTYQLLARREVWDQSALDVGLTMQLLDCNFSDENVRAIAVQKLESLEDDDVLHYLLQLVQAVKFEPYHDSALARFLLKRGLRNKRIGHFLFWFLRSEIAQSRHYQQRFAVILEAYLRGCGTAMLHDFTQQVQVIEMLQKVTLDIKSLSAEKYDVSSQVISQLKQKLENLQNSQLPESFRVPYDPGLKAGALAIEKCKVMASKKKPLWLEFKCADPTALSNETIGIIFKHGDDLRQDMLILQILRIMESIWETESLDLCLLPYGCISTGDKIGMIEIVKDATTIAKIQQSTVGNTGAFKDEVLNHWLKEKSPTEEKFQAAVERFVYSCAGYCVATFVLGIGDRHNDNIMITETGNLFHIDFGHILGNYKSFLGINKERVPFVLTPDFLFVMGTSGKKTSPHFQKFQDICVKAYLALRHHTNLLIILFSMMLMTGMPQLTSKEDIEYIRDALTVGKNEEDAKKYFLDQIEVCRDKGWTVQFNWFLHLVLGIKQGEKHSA

Structure (SMILES) | Ki
COCCn1cc(N2Cc3nc(-c4cnc(OC)c(OC)c4)ccc3C2=O)ccc1=O | 100 to 490 nM
COc1cc(-c2ccc3c(n2)C(N2CCOCC2)N(c2cnn(CC(F)(F)F)c2)C3=O)cnc1OC (stereo not given) | 100 to 490 nM
CCOc1ncc(-c2cc(C)c3c(n2)CN(c2ccon2)C3=O)cc1OC | < 100 nM
CCc1cc(N2Cc3nc(-c4cnc(OC)c(OC)c4)ccc3C2=O)nn1C[C@H](C)O | < 100 nM
COc1cc(-c2cc(C)c3c(n2)CN(c2cncc(CO)c2)C3=O)cnc1OC | < 100 nM
Cc1cc(-c2cncc(OC(F)F)c2)nc2c1C(=O)N(c1cnn(C[C@@H](C)O)c1)C2 | < 100 nM
COc1ccc(-c2cc(C)c3c(n2)CN(c2cnn(CC(F)(F)F)c2)C3=O)cn1 | < 100 nM
COc1cccc(-c2cc(C)c3c(n2)CN(c2cnn(CC(F)(F)F)c2)C3=O)n1 | < 100 nM
COc1cc(-c2ccc3c(n2)[C@H](C)N(c2cn(CC(F)(F)F)cn2)C3=O)cnc1OC | < 100 nM
COc1ncc(-c2cc(C)c3c(n2)CN(c2cnn(C(C)(C)C#N)c2)C3=O)cn1 | < 100 nM
COc1cc(-c2cc(C)c3c(n2)CN(c2cnc(OC)c(F)c2)C3=O)cnc1OC | < 100 nM
CCOc1ncc(-c2cc(C)c3c(n2)C(OC)N(c2cnn(CC(F)(F)F)c2)C3=O)cc1OC (stereo not given) | < 100 nM
COc1cc(-c2ccc3c(n2)CN(c2cncc(C(C)(C)O)c2)C3=O)cnc1OC | < 100 nM
Cc1cc(-c2cncc(NC(=O)C(C)(C)C)c2)nc2c1C(=O)N(c1cnn(CC(F)(F)F)c1)C2(C)C | 100 to 490 nM
COc1cc(-c2cc(C)c3c(n2)CN(c2ccn(C(C)(C)C#N)n2)C3=O)cnc1OC | < 100 nM
COc1cc(-c2ccc3c(n2)CN(c2ccc(N4CCC(CCO)CC4)nc2)C3=O)cnc1OC | < 100 nM
COc1cncc(-c2cc(C)c3c(n2)C(C)(C)N(c2ccn(C[C@H](C)O)n2)C3=O)c1 | < 100 nM
COc1cc(-c2cc(C)c3c(n2)CN(c2cnn(C(C)(C)C(N)=O)c2)C3=O)cnc1OC | < 100 nM
COc1cncc(-c2cc(C)c3c(n2)CN(c2ccn(CC(C)(C)F)n2)C3=O)c1 | < 100 nM
CCn1ccc(N2C(=O)c3c(C)cc(-c4cncc(OCC(F)F)c4)nc3[C@H]2C)n1 | < 100 nM
COc1cc(-c2cc(N3CCC3)c3c(n2)CN(c2cnn(CC(F)(F)F)c2)C3=O)cnc1OC | < 100 nM
COc1ccc(-c2cc(C)c3c(n2)CN(c2cnn(CC#N)c2)C3=O)c(OC)n1 | < 100 nM
Cc1cc(-c2cncc(OC(F)F)c2)nc2c1C(=O)N(c1cc[nH]n1)C2 | < 100 nM
COCCn1cc(N2Cc3cc(-c4cnc(OC)c(OC)c4)ccc3C2=O)cn1 | 100 to 490 nM

Structure (SMILES) | Ki
COc1ncc(-c2cc(C)c3c(c2)CN(c2cnn(CC(F)(F)F)c2)C3=O)nc1OC | < 100 nM
COc1cc(-c2ccc3c(n2)CN(c2cccc(C(C)(C)C#N)n2)C3=O)cnc1OC | < 100 nM
COc1cncc(-c2cc(C)c3c(n2)CN(c2cnn(CC#N)c2)C3=O)c1 | < 100 nM
CCOc1ncc(-c2cc(C)c3c(n2)C2(CCOCC2)N(c2cnn(CC(F)(F)F)c2)C3=O)cc1OC | < 100 nM
CCOc1ncc(-c2cc(C)c3c(n2)[C@]2(CCCO2)N(c2ccn(CC)n2)C3=O)cc1OC | 100 to 490 nM
COc1cncc(-c2cc(C)c3c(n2)CN(c2ccn(C[C@@H](C)F)n2)C3=O)c1 | < 100 nM
COc1cc(-c2ccc3c(c2)CN(c2cnn([C@@H](C)C#N)c2)C3=O)cnc1OC | < 100 nM
CCn1cc(N2C(=O)c3ccc(-c4cnc(OC)c(OC(F)F)c4)nc3C2C)cn1 (stereo not given) | < 100 nM
COc1cc(-c2cc(C)c3c(n2)CN(c2cnc(NC(C)=O)c(C)c2)C3=O)cnc1OC | < 100 nM
COc1cc(-c2ccc3c(n2)[C@@H](C)N(c2ccn(CC(C)(C)F)n2)C3=O)cnc1OC | < 100 nM
COc1cncc(-c2cc(C)c3c(n2)[C@@H](C)N(c2ccn(C[C@H](C)O)n2)C3=O)c1 | < 100 nM
CCOCCCOc1cc(-c2cc(C)c3c(n2)CN(c2cnn(CC(F)(F)F)c2)C3=O)cnc1OC | < 100 nM
COc1cc(-c2cc(C)c3c(n2)CN(c2cncc(OCC(F)(F)F)c2)C3=O)cnc1OC | < 100 nM
Cc1cc(-c2cncc(S(C)(=O)=O)c2)nc2c1C(=O)N(c1cnn(CC(F)(F)F)c1)[C@H]2C | < 100 nM
COc1cc(OC)c(-c2cc(C)c3c(c2)CN(c2cnn(CC(F)(F)F)c2)C3=O)cn1 | < 100 nM
COc1cncc(-c2cc(C)c3c(n2)C2(CCC2)N(c2cnn(CC(F)(F)F)c2)C3=O)c1 | < 100 nM
COc1cc(-c2ccc3c(c2)CN(c2cscn2)C3=O)cnc1OC | 100 to 490 nM
COc1cc(-c2ccc3c(n2)CN(c2cnn(C[C@H](O)CC#N)c2)C3=O)cnc1OC | < 100 nM
CCn1ccc(N2Cc3nc(-c4cncc(OC)c4)cc(C)c3C2=O)n1 | < 100 nM
COCCOCCOc1ncc(-c2cc(C)c3c(n2)CN(c2cnn(CC#N)c2)C3=O)cc1OC | < 100 nM
COc1cc(-c2cc(C)c3c(n2)CN(c2cc(C)[nH]n2)C3=O)cnc1OC | < 100 nM
CCc1cc(-c2cnc(OC)c(OC)c2)nc2c1C(=O)N(c1cnn(CC(F)(F)F)c1)C2(C)C | < 100 nM
CCCCOCCOc1cc(-c2cc(C)c3c(n2)CN(c2cnn(CC(F)(F)F)c2)C3=O)cnc1OC | < 100 nM
COc1cc(-c2cc(C)c3c(c2)CN(c2cnn([C@H](CO)C(F)(F)F)c2)C3=O)cnc1OC | < 100 nM

Structure (SMILES) | Ki
COc1cc(-c2ccc3c(n2)CN(c2cnn(CCC#N)c2)C3=O)cnc1OC | < 100 nM
CNC(=O)c1cncc(-c2cc(C)c3c(n2)C(C)(C)N(c2cnn(CC(F)(F)F)c2)C3=O)c1 | < 100 nM
COc1ncc(-c2ccc3c(c2)CN(c2cnn(CC#N)c2)C3=O)c(OC)n1 | < 100 nM
COc1cc(-c2ccc3c(n2)CN(c2ccc(N4CCC(N(C)C)C4)nc2)C3=O)cnc1OC (stereo not given) | < 100 nM
Cc1cc(-c2cncc(OC(F)F)c2)nc2c1C(=O)N(c1cnn(CC(F)F)c1)C2 | < 100 nM
COc1cncc(-c2cc(C)c3c(n2)CN(c2cnn(CC(F)(F)F)c2)C3=O)c1 | < 100 nM
COc1ncc(-c2cc(C)c3c(n2)CN(c2cnn(C(C)(C)C#N)c2)C3=O)c(OC)n1 | < 100 nM
CCOCCOc1ncc(-c2cc(C)c3c(n2)CN(c2cnn(CC(F)(F)F)c2)C3=O)cc1OC | 100 to 490 nM
COCCC1c2nc(-c3cnc(OC)c(OC)c3)cc(C)c2C(=O)N1c1cnn(CC(F)(F)F)c1 (stereo not given) | < 100 nM
COc1cc(-c2ccc3c(n2)CN(c2cnn(C4CC4)c2)C3=O)cnc1OC | < 100 nM
CCOc1cncc(-c2cc(C)c3c(n2)[C@](C)(OC)N(c2cnn(CC(F)(F)F)c2)C3=O)c1 | < 100 nM
COc1cncc(-c2cc(C)c3c(n2)CN(c2cnn(C[C@H](C)F)c2)C3=O)c1 | < 100 nM
COc1cc(-c2cc(C)c3c(n2)CN(c2cscn2)C3=O)cnc1OC | < 100 nM
CCNC(=O)c1cc(-c2cc(C)c3c(n2)C(C)(C)N(c2cnn(CC(F)(F)F)c2)C3=O)cnc1OC | < 100 nM
COc1cc(-c2ccc3c(n2)CN(c2ccn(CC4CCCCO4)n2)C3=O)cnc1OC (stereo not given) | < 100 nM
Cc1cc(-c2cncc(OC3CC3)c2)nc2c1C(=O)N(c1cnn(CC(F)(F)F)c1)C2(C)C | < 100 nM
COc1cc(-c2ccc3c(n2)C(C)N(c2cnn(C[C@@H](C)O)c2)C3=O)cnc1OC (stereo not given in full) | 100 to 490 nM
Cc1cc(-c2cncc(C(=O)NC3CC3)c2)nc2c1C(=O)N(c1cnn(CC(F)(F)F)c1)C2 | < 100 nM
COc1cncc(-c2cc(C)c3c(n2)C2(CC=CC2)N(c2cnn(CC(F)(F)F)c2)C3=O)c1 | < 100 nM
CCn1nc(N2Cc3nc(-c4cnc(OC)c(OC)c4)ccc3C2=O)cc1COC | < 100 nM
CCOC1(C)c2nc(-c3cnc(OC)c(OC)c3)cc(C)c2C(=O)N1c1cnn(CC(F)(F)F)c1 (stereo not given) | < 100 nM
COc1cc(-c2ccc3c(n2)CN(c2cnn(CCn4nccc4C)c2)C3=O)cnc1OC | 100 to 490 nM
COCCO[C@H]1c2nc(-c3cnc(OC)c(OC)c3)ccc2C(=O)N1c1cnn(CC(F)(F)F)c1 | 100 to 490 nM
COc1cc(-c2cc(C)c3c(n2)[C@@](C)(OC)N(c2cnn(CC(F)(F)F)c2)C3=O)cnc1OC | < 100 nM

Structure (SMILES) | Ki
CCn1ccc(N2C(=O)c3c(C)cc(-c4cncc(OC)c4)nc3C2C)n1 (stereo not given) | < 100 nM
COc1cc(-c2ccc3c(n2)CN(c2cnn(Cc4ccn(C)n4)c2)C3=O)cnc1OC | < 100 nM
COc1cc(-c2ccc3c(n2)CN(c2ccon2)C3=O)cnc1O | 100 to 490 nM
COc1cc(-c2cc(C)c3c(n2)CN(c2ccsc2)C3=O)cnc1OC | < 100 nM
CON=Cc1cncc(-c2cc(C)c3c(n2)C(C)(C)N(c2cnn(CC(F)(F)F)c2)C3=O)c1 | < 100 nM
COc1cc(-c2cc(C)c3c(n2)C(O)N(c2cnn(CC(F)(F)F)c2)C3=O)cnc1OC (stereo not given) | < 100 nM
COc1cc(-c2ccc3c(n2)CN(c2cnn(CC(C)O)c2)C3=O)cnc1OC (stereo not given) | < 100 nM
COc1cc(-c2cc(C)c3c(n2)CN(c2cncnc2)C3=O)cnc1OC | < 100 nM
Cc1cc(-c2cnc(C)c(OCC(F)F)c2)nc2c1C(=O)N(c1ccn([C@H]3CCOC3)n1)C2 | < 100 nM
Cc1ccc(-c2cc(C)c3c(n2)CN(c2cnn(CC#N)c2)C3=O)cn1 | < 100 nM
COCCOCCOc1ncc(-c2cc(C)c3c(c2)CN(c2cnn(CC(F)(F)F)c2)C3=O)cc1OC | 100 to 490 nM
COc1cncc(-c2cc(C)c3c(n2)CN(c2cnn(C(C)(C)C#N)c2)C3=O)c1 | < 100 nM
COc1cc(-c2ccc3c(n2)CN(c2ccc(N4CCN(CCC#N)CC4)nc2)C3=O)cnc1OC | < 100 nM
CCn1cc(N2C(=O)c3ccc(-c4cnc(OC)c(OC)c4)nc3C2C)cn1 (stereo not given) | < 100 nM
CCCCOCCOc1cncc(-c2cc(C)c3c(n2)CN(c2cnn(CC(F)(F)F)c2)C3=O)c1 | 100 to 490 nM
Cc1cc(-c2cc(OC(F)(F)F)ccc2Cl)nc2c1C(=O)N(c1cnn(CC(F)(F)F)c1)C2 | 100 to 490 nM
COc1cc(-c2cc(C)c3c(n2)CN(c2ccnc(C)c2)C3=O)cnc1OC | < 100 nM
COc1cncc(-c2cc(C)c3c(n2)C2(CN(C(=O)OC(C)(C)C)C2)N(c2cnn(CC(F)(F)F)c2)C3=O)c1 | < 100 nM
COc1cc(-c2cc(C)c3c(n2)CN(c2csc(CO)c2)C3=O)cnc1OC | < 100 nM
COc1cncc(-c2cc(C)c3c(n2)CN(c2ccn(C)n2)C3=O)c1 | < 100 nM
Cc1cc(-c2cncc(OC(F)F)c2)nc2c1C(=O)N(c1cnn(C[C@H](C)O)c1)[C@@H]2C | < 100 nM
COc1cc(-c2cc(C)c3c(n2)[C@H](C)N(c2cnn(C[C@@H](C)O)c2)C3=O)cnc1OC | < 100 nM
COc1cc(-c2ccc3c(n2)CN(c2cnn(C(C)(C)C#N)c2)C3=O)cnc1OC | < 100 nM
